Data: PubChem BioAssay AID1259407 (Chemical Carcinogenesis Research Information System (CCRIS), 2018)
The source made the active and inactive calls. How the calls were made is not given here.

Tested on: CCRIS mutagenicity, Ames/micronucleus/aberration tests
Assay: CCRIS mutagenicity studies
[1] = Test System: AMES SALMONELLA TYPHIMURIUM, Strain/Indicator: TA98, Metabolic Activation: NONE, Method: STANDARD PLATE
[2] = Test System: AMES SALMONELLA TYPHIMURIUM, Strain/Indicator: TA98, Metabolic Activation: RAT, LIVER, S-9, AROCLOR 1254, Method: STANDARD PLATE
[3] = Test System: AMES SALMONELLA TYPHIMURIUM, Strain/Indicator: TA100, Metabolic Activation: NONE, Method: PREINCUBATION
[4] = Test System: AMES SALMONELLA TYPHIMURIUM, Strain/Indicator: TA100, Metabolic Activation: NONE, Method: STANDARD PLATE
[5] = Test System: AMES SALMONELLA TYPHIMURIUM, Strain/Indicator: TA100, Metabolic Activation: RAT, LIVER, S-9, AROCLOR 1254, Method: STANDARD PLATE
[6] = Test System: AMES SALMONELLA TYPHIMURIUM, Strain/Indicator: TA102, Metabolic Activation: NONE, Method: STANDARD PLATE
[7] = Test System: AMES SALMONELLA TYPHIMURIUM, Strain/Indicator: TA1537, Metabolic Activation: NONE, Method: STANDARD PLATE
[8] = Test System: AMES SALMONELLA TYPHIMURIUM, Strain/Indicator: TA1537, Metabolic Activation: RAT, LIVER, S-9, AROCLOR 1254, Method: STANDARD PLATE

Row | SMILES | mutagenic call [1] | mutagenic call [2] | mutagenic call [4] | mutagenic call [5] | mutagenic call [7] | mutagenic call [8] | also measured
1 | C\C=C(/C=C(C)/C=C(C)/C=C/C=C(\C)C(=O)[C@]12O[C@H]1[C@@](O)(CCO)NC2=O)C(=O)OC | inactive; negative | active; positive | inactive; negative | active; positive |  |  | mutagenic call (Test System: AMES SALMONELLA TYPHIMURIUM, Strain/Indicator: TA97A, Metabolic Activation: NONE, Method: STANDARD PLATE): inactive; negative; mutagenic call (Test System: AMES SALMONELLA TYPHIMURIUM, Strain/Indicator: TA97A, Metabolic Activation: RAT, LIVER, S-9, AROCLOR 1254, Method: STANDARD PLATE): active; positive; mutagenic call [3]: active; positive; mutagenic call (Test System: AMES SALMONELLA TYPHIMURIUM, Strain/Indicator: TA100, Metabolic Activation: RAT, LIVER, MICROSOMES, PHENOBARBITAL, Method: PREINCUBATION): active; positive; mutagenic call [6]: inactive; negative; mutagenic call (Test System: AMES SALMONELLA TYPHIMURIUM, Strain/Indicator: TA102, Metabolic Activation: RAT, LIVER, S-9, AROCLOR 1254, Method: STANDARD PLATE): inactive; negative
2 | C1CCC2OCCOCCOCCOCCOC3CCCCC3OCCOCCOCCOCCOC2C1 (configuration not stated) | inactive; negative | inactive; negative | inactive; negative | inactive; negative | inactive; negative | inactive; negative | mutagenic call (Test System: AMES SALMONELLA TYPHIMURIUM, Strain/Indicator: TA1530, Metabolic Activation: NONE, Method: STANDARD PLATE): inactive; negative; mutagenic call (Test System: AMES SALMONELLA TYPHIMURIUM, Strain/Indicator: TA1530, Metabolic Activation: RAT, LIVER, S-9, AROCLOR 1254, Method: STANDARD PLATE): inactive; negative
3 | CC(Cl)c1ccccc1 (configuration not stated) | inactive; negative |  | inactive; negative |  |  |  | 
4 | CCCCCCCCCCCC(=O)OCCS(=O)(=O)O | inactive; negative | inactive; negative | inactive; negative | inactive; negative | inactive; negative | inactive; negative | mutagenic call (Test System: AMES SALMONELLA TYPHIMURIUM, Strain/Indicator: TA98, Metabolic Activation: HAMSTER, LIVER, S-9, AROCLOR 1254, Method: STANDARD PLATE): inactive; negative; mutagenic call (Test System: AMES SALMONELLA TYPHIMURIUM, Strain/Indicator: TA100, Metabolic Activation: HAMSTER, LIVER, S-9, AROCLOR 1254, Method: STANDARD PLATE): inactive; negative; mutagenic call (Test System: AMES SALMONELLA TYPHIMURIUM, Strain/Indicator: TA1535, Metabolic Activation: HAMSTER, LIVER, S-9, AROCLOR 1254, Method: STANDARD PLATE): inactive; negative; mutagenic call (Test System: AMES SALMONELLA TYPHIMURIUM, Strain/Indicator: TA1535, Metabolic Activation: NONE, Method: STANDARD PLATE): inactive; negative; mutagenic call (Test System: AMES SALMONELLA TYPHIMURIUM, Strain/Indicator: TA1535, Metabolic Activation: RAT, LIVER, S-9, AROCLOR 1254, Method: STANDARD PLATE): inactive; negative; mutagenic call (Test System: AMES SALMONELLA TYPHIMURIUM, Strain/Indicator: TA1537, Metabolic Activation: HAMSTER, LIVER, S-9, AROCLOR 1254, Method: STANDARD PLATE): inactive; negative; mutagenic call (Test System: MOUSE LYMPHOMA, Strain/Indicator: L5178Y (TK+/TK-), Metabolic Activation: NONE, Method: SUSPENSION/PLATE): inactive; negative. reevaluation of results: negative; mutagenic call (Test System: MOUSE LYMPHOMA, Strain/Indicator: L5178Y (TK+/TK-), Metabolic Activation: RAT, LIVER, S-9, AROCLOR 1254, Method: SUSPENSION/PLATE): inactive; negative. reevaluation of results: negative
5 | Cc1cc2c(O)cccc2c2cc3ccccc3cc12 |  |  |  |  |  |  | mutagenic call (Test System: AMES SALMONELLA TYPHIMURIUM, Strain/Indicator: TA100, Metabolic Activation: RAT, LIVER, S-9, AROCLOR 1254, Method: PREINCUBATION): active; positive
6 | c1c[nH]cn1 | inactive; negative |  | inactive; negative |  |  |  | mutagenic call (Test System: AMES SALMONELLA TYPHIMURIUM, Strain/Indicator: TA97, Metabolic Activation: NONE, Method: STANDARD PLATE): inactive; negative; mutagenic call (Test System: AMES SALMONELLA TYPHIMURIUM, Strain/Indicator: TA97, Metabolic Activation: RAT, LIVER, S-9, PHENOBARBITAL AND BETA-NAPHTHOFLAVONE, Method: STANDARD PLATE): inactive; negative; mutagenic call (Test System: AMES SALMONELLA TYPHIMURIUM, Strain/Indicator: TA98, Metabolic Activation: RAT, LIVER, S-9, PHENOBARBITAL AND BETA-NAPHTHOFLAVONE, Method: STANDARD PLATE): inactive; negative; mutagenic call (Test System: AMES SALMONELLA TYPHIMURIUM, Strain/Indicator: TA100, Metabolic Activation: RAT, LIVER, S-9, PHENOBARBITAL AND BETA-NAPHTHOFLAVONE, Method: STANDARD PLATE): inactive; negative; mutagenic call [6]: inactive; negative; mutagenic call (Test System: AMES SALMONELLA TYPHIMURIUM, Strain/Indicator: TA102, Metabolic Activation: RAT, LIVER, S-9, PHENOBARBITAL AND BETA-NAPHTHOFLAVONE, Method: STANDARD PLATE): inactive; negative; mutagenic call (Test System: UDS RAT HEPATOCYTES, Strain/Indicator: THY INCORP, Metabolic Activation: NONE, Method: AUTORADIOGRAPHY): inactive; negative
7 | CC(=O)OCc1ccc(N=Nc2ccccc2COC(C)=O)cc1 |  |  |  |  |  |  | mutagenic call [3]: active; positive; mutagenic call (Test System: AMES SALMONELLA TYPHIMURIUM, Strain/Indicator: TA100, Metabolic Activation: RAT, LIVER, S-9, POLYCHLORINATED BIPHENYLS, Method: PREINCUBATION): inactive; negative
8 | NNC(=O)CNc1ccc2ccccc2c1 | inactive; negative | inactive; negative | inactive; negative | inactive; negative | inactive; negative | inactive; negative | 
